Ki data for 19 compounds are collected here from patent US11034698B2, “Pyrazolo[ 1,5a]pyrimidine derivatives as IRAK4 modulators” (priority 2017, dated 2021).

The assay addresses human IRAK4 (Homo sapiens (Human), UniProt Q9NWZ3). The assay can be described thus: IRAK4 kinase inhibition, Transcreener fluorescence polarization (ADP). The assay is classed as biochemical. As to conditions: recombinant full-length His6-IRAK4 1.25 nM; 125 uM ATP; 125 uM peptide; 90 min; ATP Km 642 uM; read-out: IRAK4 Ki. The procedure, abridged:
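The enzyme was full-length human IRAK4 with an N-terminal His6 tag, expressed in insect cells. Kinase activity was read as ADP product by Transcreener fluorescence polarization.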
In general terms: Polarisation of emitted light reports the rotation of a fluorescent probe.

human IRAK4, sequence (Q9NWZ3 whole entry): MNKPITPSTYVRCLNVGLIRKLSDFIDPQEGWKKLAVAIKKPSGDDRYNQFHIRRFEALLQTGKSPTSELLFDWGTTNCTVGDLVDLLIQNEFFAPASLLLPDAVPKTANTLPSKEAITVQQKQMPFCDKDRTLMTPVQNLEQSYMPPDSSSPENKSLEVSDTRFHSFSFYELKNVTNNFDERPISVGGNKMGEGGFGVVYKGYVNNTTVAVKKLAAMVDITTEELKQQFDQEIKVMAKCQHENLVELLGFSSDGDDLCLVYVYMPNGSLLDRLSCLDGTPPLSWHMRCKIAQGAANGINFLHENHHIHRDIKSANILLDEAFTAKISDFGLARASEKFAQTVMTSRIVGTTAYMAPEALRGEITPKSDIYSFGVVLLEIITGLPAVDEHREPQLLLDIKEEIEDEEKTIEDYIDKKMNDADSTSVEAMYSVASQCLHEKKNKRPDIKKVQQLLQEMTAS

Regarding `CC(C)(O)[C@H](F)CN1Cc2cc(NC(=O)c3cnn4cccnc34)c(N3CCN4CCC[C@@H]4C3)cc2C1=O` [Example 100, N-(2-((R)-2-Fluoro-3-hydroxy-3-methylbutyl)-6-((R)-hexahydropyrrolo[1,2-a]pyrazin-2(1H)-yl)-1-oxoisoindolin-5-yl)pyrazolo[1,5-a]pyrimidine-3-carboxamide], the Ki (usually a dissociation constant, usually derived from enzyme kinetics or from competition with a known ligand) was found to be 1.8 nM. In the case of `CO[C@@H]1C[C@H]2CN(c3cc4c(cc3NC(=O)c3cnn5cccnc35)CN(C[C@@H](F)C(C)(C)O)C4=O)CCN2C1` [Example 101, N-(2-((R)-2-Fluoro-3-hydroxy-3-methylbutyl)-6-((7R,8aS)-7-methoxyhexahydropyrrolo[1,2-a]pyrazin-2(1H)-yl)-1-oxoisoindolin-5-yl)pyrazolo[1,5-a]pyrimidine-3-carboxamide] it was 12 nM; in that of `CC(C)(O)[C@H](F)CN1Cc2cc(NC(=O)c3cnn4ccc(Cl)nc34)c(N3CCOCC3)cc2C1=O` [Example 102, (R)-5-Chloro-N-(2-(2-fluoro-3-hydroxy-3-methylbutyl)-6-morpholino-1-oxoisoindolin-5-yl)pyrazolo[1,5-a]pyrimidine-3-carboxamide], 6.5 nM.

Regarding `CCc1oncc1CN1CCN(c2cc3c(cc2NC(=O)c2cnn4cccnc24)CN(C[C@@H](F)C(C)(C)O)C3=O)CC1` [Example 103, (R)-N-(6-(4-((5-Ethylisoxazol-4-yl)methyl)piperazin-1-yl)-2-(2-fluoro-3-hydroxy-3-methylbutyl)-1-oxoisoindolin-5-yl)pyrazolo[1,5-a]pyrimidine-3-carboxamide], the inhibitory constant (Ki) worked out at 5.4 nM. In the case of `CCc1nocc1CN1CCN(c2cc3c(cc2NC(=O)c2cnn4cccnc24)CN(C[C@@H](F)C(C)(C)O)C3=O)CC1` [Example 104, (R)-N-(6-(4-((3-Ethylisoxazol-4-yl)methyl)piperazin-1-yl)-2-(2-fluoro-3-hydroxy-3-methylbutyl)-1-oxoisoindolin-5-yl)pyrazolo[1,5-a]pyrimidine-3-carboxamide] it was 5 nM; in that of `CC(C)(O)[C@H](F)CN1Cc2cc(NC(=O)c3cnn4cccnc34)c(N3CCN(C4COC4)CC3)cc2C1=O` [Example 105, (R)-N-(2-(2-Fluoro-3-hydroxy-3-methylbutyl)-6-(4-(oxetan-3-yl)piperazin-1-yl)-1-oxoisoindolin-5-yl)pyrazolo[1,5-a]pyrimidine-3-carboxamide], 3.4 nM.

For `CC(C)(O)[C@H](F)CN1Cc2cc(NC(=O)c3cnn4cccnc34)c(N3CCN(CCn4ccnc4)CC3)cc2C1=O` [Example 106, (R)-N-(6-(4-(2-(1H-Imidazol-1-yl)ethyl)piperazin-1-yl)-2-(2-fluoro-3-hydroxy-3-methylbutyl)-1-oxoisoindolin-5-yl)pyrazolo[1,5-a]pyrimidine-3-carboxamide], the inhibitory constant (Ki) was determined as 2.1 nM. As for `CO[C@@H]1C[C@@H]2CN(c3cc4c(cc3NC(=O)c3cnn5cccnc35)CN(C[C@@H](F)C(C)(C)O)C4=O)CCN2C1` [Example 107, N-(2-((R)-2-Fluoro-3-hydroxy-3-methylbutyl)-6-((7R,8aR)-7-methoxyhexahydropyrrolo[1,2-a]pyrazin-2(1H)-yl)-1-oxoisoindolin-5-yl)pyrazolo[1,5-a]pyrimidine-3-carboxamide], the figure is 6.5 nM. Consider `CO[C@H]1C[C@@H]2CN(c3cc4c(cc3NC(=O)c3cnn5cccnc35)CN(C[C@@H](F)C(C)(C)O)C4=O)CCN2C1` [Example 108, N-(2-((R)-2-Fluoro-3-hydroxy-3-methylbutyl)-6-((7S,8aR)-7-methoxyhexahydropyrrolo[1,2-a]pyrazin-2(1H)-yl)-1-oxoisoindolin-5-yl)pyrazolo[1,5-a]pyrimidine-3-carboxamide], for which the Ki stood at 1.3 nM. In the case of `CC(C)(O)[C@H](F)CN1Cc2cc(NC(=O)c3cnn4cccnc34)c(N3CCN(CC(F)(F)F)CC3)cc2C1=O` [Example 109, (R)-N-(2-(2-Fluoro-3-hydroxy-3-methylbutyl)-1-oxo-6-(4-(2,2,2-trifluoroethyl)piperazin-1-yl)isoindolin-5-yl)pyrazolo[1,5-a]pyrimidine-3-carboxamide] it was 2.6 nM; in that of `C[C@H]1C[C@@H]2CN(c3cc4c(cc3NC(=O)c3cnn5cccnc35)CN(C[C@@H](F)C(C)(C)O)C4=O)CCN2C1` [Example 110, N-[6-[(7S,8aR)-7-Methyl-3,4,6,7,8,8a-hexahydro-1H-pyrrolo[1,2-a]pyrazin-2-yl]-2-[(2R)-2-fluoro-3-hydroxy-3-methyl-butyl]-1-oxo-isoindolin-5-yl]pyrazolo[1,5-a]pyrimidine-3-carboxamide], 7.5 nM; in that of `COCCN1CCN(c2cc3c(cc2NC(=O)c2cnn4cccnc24)CN(C[C@@H](F)C(C)(C)O)C3=O)CC1` [Example 112, (R)-N-(2-(2-Fluoro-3-hydroxy-3-methylbutyl)-6-(4-(2-methoxyethyl)piperazin-1-yl)-1-oxoisoindolin-5-yl)pyrazolo[1,5-a]pyrimidine-3-carboxamide], 2.6 nM. As for `CC(C)N1CCN(c2cc3c(cc2NC(=O)c2cnn4cccnc24)CN(C[C@@H](F)C(C)(C)O)C3=O)CC1` [Example 113, (R)-N-(2-(2-Fluoro-3-hydroxy-3-methylbutyl)-6-(4-isopropylpiperazin-1-yl)-1-oxoisoindolin-5-yl)pyrazolo[1,5-a]pyrimidine-3-carboxamide], the figure is 7.5 nM. As for `CC(=O)Nc1ccn2ncc(C(=O)Nc3cc4c(cc3N(C)C)C(=O)N(C[C@@H](F)C(C)(C)O)C4)c2n1` [Example 131, (R)-5-Acetamido-N-(6-(dimethylamino)-2-(2-fluoro-3-hydroxy-3-methylbutyl)-1-oxoisoindolin-5-yl)pyrazolo[1,5-a]pyrimidine-3-carboxamide], the figure is 6.4 nM; as for `CN(C)c1cc2c(cc1NC(=O)c1cnn3ccc(C(=O)NC4CC4)nc13)CN(C[C@@H](F)C(C)(C)O)C2=O` [Example 132, (R)—N^5-Cyclopropyl-N^3-(6-(dimethylamino)-2-(2-fluoro-3-hydroxy-3-methylbutyl)-1-oxoisoindolin-5-yl)pyrazolo[1,5-a]pyrimidine-3,5-dicarboxamide], 19 nM.

Regarding `CC(C)(O)[C@H](F)CN1Cc2cc(NC(=O)c3cnn4cc(O)cnc34)c(N3CCOCC3)cc2C1=O` [Example 133, (R)—N-(2-(2-Fluoro-3-hydroxy-3-methylbutyl)-6-morpholino-1-oxoisoindolin-5-yl)-6-hydroxypyrazolo[1,5-a]pyrimidine-3-carboxamide], the Ki came to 5.7 nM. In the case of `CC(C)(O)[C@H](F)CN1Cc2cc(NC(=O)c3cnn4cccnc34)c(OCC(F)(F)F)cc2C1=O` [Example 135, (R)—N-(2-(2-Fluoro-3-hydroxy-3-methylbutyl)-1-oxo-6-(2,2,2-trifluoroethoxy)isoindolin-5-yl)pyrazolo[1,5-a]pyrimidine-3-carboxamide] it was 0.63 nM. In the case of `Cc1ccc(-c2cc3c(cc2NC(=O)c2cnn4cccnc24)CC(C)(C)O3)nc1` [Example 145, N-[2,2-Dimethyl-6-(5-methyl-2-pyridyl)-3H-benzofuran-5-yl]pyrazolo[1,5-a]pyrimidine-3-carboxamide] it was 60 nM; in that of `Cc1ccc(-c2cc3c(cc2NC(=O)c2cnn4cccnc24)CN(C[C@@H](F)C(C)(C)O)C3=O)nc1` [Example 146, (R)-N-(2-(2-Fluoro-3-hydroxy-3-methylbutyl)-6-(5-methylpyridin-2-yl)-1-oxoisoindolin-5-yl)pyrazolo[1,5-a]pyrimidine-3-carboxamide], 8.1 nM.
